Results: paper PMC2759274 (Molecular microbiology, 2009)

Tests used:
PsrA (His6-PsrA) = PsrA (His6-PsrA) (Pseudomonas aeruginosa, UniProt Q9HZJ9); experiment: EMSA, inhibition of PsrA binding to promoter DNA; details: 100 ng PpsrA, PrpoS or PexsC DNA; 0.01% Brij-58; inhibition seen from 5 µM
crystal structure = target: the molecule itself; experiment: crystal structure

Molecule | complete inhibition of DNA binding (PsrA (His6-PsrA)) [µM] | binding result (crystal structure)
CCCCCCCC/C=C\CCCCCCCC(=O)O [oleate] | 50 | 
PsrA (PA3006) of Pseudomonas aeruginosa (natural protein, selenomethionine in place of methionine) MAQSETVERILDAAEQLFAEKGFAETSLRLITSKAGVNLAAVNYHFGSKKALIQAVFSRFLGPFCASLEKELDRRQAKPEAQHATLEDLLHLLVSQAMAVKPRSGNDLSIFMRLLGLAFSQSQGHLRKYLEEVYGKVFRRYMLLVNEAAPKLPPIELFWRVHFMLGAAAFSMSGIKALRAMAETDFGVNTSTEQVMHLMVPFFAAGMRAESGIDDPLLAGAQLRPRNKTPAKA |  | binds
